Experimental data: patent US8338422B2, “Indolin-2-ones and aza-indolin-2-ones” (Janssen Pharmaceutica NV, priority 2007, dated 2012)
“And” between values parts separate entries of the source, which are not always exact repeats. Identical values can stand only once.

Key:
PLK4 (h) = PLK4 (h) (Homo sapiens, UniProt O00444); assay: PLK-4 human kinase assay (SPA); assay type: biochemical; settings: for IC50: read-out: PLK4 pIC50 (converted)
Method in brief: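 Radiometric readout: 33P-labelled peptide captured on streptavidin SPA beads after EDTA stop, imaged by Leadseeker. Reaction ran 60 min at room temperature in Hepes pH 8.0 buffer. It contained 1 μM ATP with 2 nM [γ-33P]ATP, 10 μM biotinylated peptide and PLK4 (h) at 19 μg/ml.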

AuroraB (h) = AuroraB (h) (Homo sapiens, UniProt Q96GD4); assay: Aurora-B human kinase assay (SPA); assay type: biochemical; settings: for IC50: read-out: AuroraB pIC50 (converted)
Chain of AuroraB (h) (Q96GD4 whole entry): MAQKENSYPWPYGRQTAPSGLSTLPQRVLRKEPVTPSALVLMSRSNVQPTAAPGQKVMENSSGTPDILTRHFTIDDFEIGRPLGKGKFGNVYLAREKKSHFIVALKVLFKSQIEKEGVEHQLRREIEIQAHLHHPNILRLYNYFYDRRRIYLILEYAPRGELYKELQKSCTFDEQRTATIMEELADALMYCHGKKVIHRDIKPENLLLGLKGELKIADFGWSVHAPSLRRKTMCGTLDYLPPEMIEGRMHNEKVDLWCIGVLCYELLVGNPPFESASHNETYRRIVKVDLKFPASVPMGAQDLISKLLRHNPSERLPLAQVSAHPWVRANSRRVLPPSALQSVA
Method in brief: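 33P-phosphorylated biotin-substrate captured on streptavidin PVT SPA beads after EDTA-containing stop and imaged on Leadseeker. Reaction: 60 min at room temperature, Hepes pH 7.5 with Mg2+/Mn2+. Conditions: 0.5 μM ATP plus 2.2 nM [γ-33P]ATP, 3 μM substrate, 0.5 μg/ml human AuroraB.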

GSK3β (h) = GSK3β (h) (Homo sapiens, UniProt P49841); assay: GSK-3β human kinase assay (SPA); assay type: biochemical; settings: for IC50: read-out: GSK3B pIC50 (converted)
Chain of GSK3β (h) (P49841 whole entry): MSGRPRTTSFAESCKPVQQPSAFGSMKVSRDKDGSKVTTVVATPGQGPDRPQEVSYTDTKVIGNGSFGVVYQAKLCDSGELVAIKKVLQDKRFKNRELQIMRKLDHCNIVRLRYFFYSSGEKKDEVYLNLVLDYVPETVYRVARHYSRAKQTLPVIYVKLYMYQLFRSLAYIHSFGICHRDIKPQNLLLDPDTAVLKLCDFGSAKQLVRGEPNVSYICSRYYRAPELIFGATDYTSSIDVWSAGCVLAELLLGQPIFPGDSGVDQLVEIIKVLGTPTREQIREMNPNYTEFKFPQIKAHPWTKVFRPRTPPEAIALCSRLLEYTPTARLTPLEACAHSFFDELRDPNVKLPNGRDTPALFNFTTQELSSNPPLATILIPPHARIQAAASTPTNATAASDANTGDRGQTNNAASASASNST
Method in brief: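 Radiometric SPA read-out: after EDTA stop, biotinylated 33P-labelled peptide bound streptavidin PVT beads and was imaged on Leadseeker. Reaction: 60 min, room temperature, GSK3β (h) at 1 μg/ml, 1 μM substrate peptide, 1 μM ATP with 2 nM [γ-33P]ATP, Tris pH 7.4/MgCl2/DTT buffer.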

CDK1/CyclinB (h) = CDK1/CyclinB (h) (Homo sapiens, UniProt P06493); assay: CDK1/CyclinB human kinase assay (FRET); assay type: biochemical; settings: for IC50: read-out: CDK1 pIC50 (converted)
Chain of CDK1/CyclinB (h) (P06493 whole entry): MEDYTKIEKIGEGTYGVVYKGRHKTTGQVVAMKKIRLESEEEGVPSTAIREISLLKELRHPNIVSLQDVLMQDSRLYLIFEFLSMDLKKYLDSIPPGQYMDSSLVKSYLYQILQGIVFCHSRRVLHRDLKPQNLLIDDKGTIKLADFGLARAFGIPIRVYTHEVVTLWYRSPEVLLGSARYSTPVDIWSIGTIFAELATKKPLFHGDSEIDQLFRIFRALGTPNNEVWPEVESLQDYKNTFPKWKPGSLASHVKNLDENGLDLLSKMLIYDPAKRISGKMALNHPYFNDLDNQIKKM
Chain of CDK1/CyclinB (h) (P14635 whole entry partner): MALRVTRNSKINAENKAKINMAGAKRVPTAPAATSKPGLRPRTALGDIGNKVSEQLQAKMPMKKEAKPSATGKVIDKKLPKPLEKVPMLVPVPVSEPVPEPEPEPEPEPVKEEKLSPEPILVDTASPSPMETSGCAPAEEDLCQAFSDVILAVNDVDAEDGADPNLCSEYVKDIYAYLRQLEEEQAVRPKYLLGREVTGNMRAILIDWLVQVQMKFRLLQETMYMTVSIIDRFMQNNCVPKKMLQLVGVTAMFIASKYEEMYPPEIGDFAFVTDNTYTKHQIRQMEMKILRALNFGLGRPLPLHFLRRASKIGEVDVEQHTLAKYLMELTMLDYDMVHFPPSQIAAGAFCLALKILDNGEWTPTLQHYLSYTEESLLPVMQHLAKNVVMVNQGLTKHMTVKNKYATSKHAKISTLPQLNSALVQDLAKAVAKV
Method in brief: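 Kinase activity was read as the 460/538 nm emission ratio after protease cleavage of unphosphorylated peptide (60 min development). The reaction ran 60 min at room temperature with 10 μM ATP, 2 μM Ser/Thr peptide 12 and 0.2 μg/ml enzyme in Hepes pH 7.5 buffer with MgCl2, EGTA, Brij-35.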

A2780 = assay: Cellular proliferation assay (Alamar blue), A2780; assay type: cell-based; settings: A2780 cells, 72 hours with compound, 10% FCS; for IC50: Homo sapiens, A2780, 72 h, read-out: pIC50 A2780 (converted)
Protocol: (§1) […] functional properties of these compounds was tested in cellular proliferation assays on a panel of different cell lines in the presence of 10% FCS serum (37° C. and 5% (v/v) CO2). In a first step these cells were seeded and incubated for 24 hours in the absence of compound. In the second step the cells were incubated for 72 hours with the compounds to be tested for 72 hours. The viable cell number was finally assessed in a standard Alamar blue cell viability assay.
(§2) The viable cell number was assessed by incubation for either 4 h (HCT-116, H1299, H460) 6 h (SKOV3, HT29, U87-MG, Colo205) or 24 h (A2780, PC3, MDA-MB-231, A549, MCF-7) with Alamar blue (Resazurin 9 μg/ml, K-Ferrocyanide 90 μM K-Ferricyanide 90 μM) and the converted fluorescent product was quantified on a fluorescent plate readed (544 nm/590 nm). Effect of the compounds is calculated as of on control cells.

HCT-116 = assay: Cellular proliferation assay (Alamar blue), HCT-116; assay type: cell-based; settings: HCT-116 cells, 72 hours with compound, 10% FCS; for IC50: Homo sapiens, HCT-116, 72 h, read-out: pIC50 HCT-116 (converted)
Protocol: as §1, §2

H1299 = assay: Cellular proliferation assay (Alamar blue), H1299; assay type: cell-based; settings: H1299 cells, 72 hours with compound, 10% FCS; for IC50: Homo sapiens, NCI-H1299, 72 h, read-out: pIC50 H1299 (converted)
Protocol: as §1, §2

MDA/MB231 = assay: Cellular proliferation assay (Alamar blue), MDA/MB231; assay type: cell-based; settings: MDA/MB231 cells, 72 hours with compound, 10% FCS; for IC50: Homo sapiens, MDA-MB-231, 72 h, read-out: pIC50 MDA/MB231 (converted)
Protocol: as §1, §2

U87MG = assay: Cellular proliferation assay (Alamar blue), U87MG; assay type: cell-based; settings: U87MG cells, 72 hours with compound, 10% FCS; for IC50: Homo sapiens, U-87 MG, 72 h, read-out: pIC50 U87MG (converted)
Protocol: as §1, §2

PC-3 = assay: Cellular proliferation assay (Alamar blue), PC-3; assay type: cell-based; settings: PC-3 cells, 72 hours with compound, 10% FCS; for IC50: Homo sapiens, PC-3, 72 h, read-out: pIC50 PC-3 (converted)
Protocol: as §1, §2

Chain of PLK4 (h) (O00444 whole entry): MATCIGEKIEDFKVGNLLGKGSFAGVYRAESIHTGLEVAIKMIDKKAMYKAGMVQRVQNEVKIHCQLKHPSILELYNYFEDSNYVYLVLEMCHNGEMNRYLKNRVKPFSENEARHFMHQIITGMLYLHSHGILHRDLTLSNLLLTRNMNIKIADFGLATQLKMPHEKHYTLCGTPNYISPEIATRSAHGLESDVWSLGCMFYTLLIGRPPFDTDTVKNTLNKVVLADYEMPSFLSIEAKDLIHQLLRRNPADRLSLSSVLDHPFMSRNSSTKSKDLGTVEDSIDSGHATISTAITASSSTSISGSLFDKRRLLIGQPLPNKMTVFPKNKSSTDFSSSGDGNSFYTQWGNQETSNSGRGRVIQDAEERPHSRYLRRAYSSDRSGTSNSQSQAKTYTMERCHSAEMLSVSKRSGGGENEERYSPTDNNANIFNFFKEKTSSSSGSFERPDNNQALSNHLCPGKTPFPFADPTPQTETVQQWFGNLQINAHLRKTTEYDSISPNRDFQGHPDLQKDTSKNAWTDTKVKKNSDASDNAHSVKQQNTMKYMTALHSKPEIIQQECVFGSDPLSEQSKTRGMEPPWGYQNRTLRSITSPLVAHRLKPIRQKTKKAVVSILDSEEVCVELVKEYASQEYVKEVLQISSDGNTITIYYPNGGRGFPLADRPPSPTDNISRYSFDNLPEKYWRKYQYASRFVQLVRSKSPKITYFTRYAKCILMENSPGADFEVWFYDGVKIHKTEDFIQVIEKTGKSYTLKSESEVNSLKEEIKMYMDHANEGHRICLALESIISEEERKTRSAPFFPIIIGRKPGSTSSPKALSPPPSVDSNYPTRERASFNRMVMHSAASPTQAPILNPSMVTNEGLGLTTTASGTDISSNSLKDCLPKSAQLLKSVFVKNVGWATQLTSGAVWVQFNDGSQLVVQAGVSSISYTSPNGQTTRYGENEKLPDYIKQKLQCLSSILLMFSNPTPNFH

SMILES | IC50 (PLK4 (h)) | IC50 (AuroraB (h)) | IC50 (GSK3β (h)) | IC50 (CDK1/CyclinB (h)) | IC50 (A2780) | IC50 (HCT-116) | IC50 (H1299) | IC50 (U87MG) | IC50 (PC-3) | IC50 (MDA/MB231) | PLK4 pIC50 (PLK4 (h)) | AuroraB pIC50 (AuroraB (h)) | GSK3B pIC50 (GSK3β (h)) | CDK1 pIC50 (CDK1/CyclinB (h)) | pIC50 A2780 (A2780) | pIC50 HCT-116 (HCT-116) | pIC50 H1299 (H1299) | pIC50 MDA/MB231 (MDA/MB231) | pIC50 U87MG (U87MG) | pIC50 PC-3 (PC-3)
COc1ccc2cc1OCC(=O)N(C)CCCCNc1ncnc3c1/C(=C/N2)C(=O)N3 [Compound 151] | 3.47 µM | 2.88 µM | 0.933 µM | > 10 µM | > 10 µM | > 10 µM | > 10 µM | > 10 µM | > 10 µM | > 10 µM | – | – | – | – | – | – | – | – | – | –
CN1CCN(c2ccc3cc2OCCCCCC(=O)N(C)CCCNc2ncnc4c2C(=CN3)C(=O)N4)CC1 (mixture of isomers) [Compound 138] | – | – | – | – | – | – | – | – | – | – | 6.74 | <5 | 6.75 | 5.8 | 5.16 | 5.52 | <5 | <5 | 6.05 | <5
COc1ccc2cc1OCCCCCC(=O)N(C)CCNc1ncnc3c1/C(=C/N2)C(=O)N3 [Compound 37] | 0.55 µM | 0.214 µM | 0.0851 µM | 2.14 µM | 7.59 µM | 6.03 µM | 3.16 µM | 1.82 µM | 9.55 µM | > 10 µM | – | – | – | – | – | – | – | – | – | –
CN1CCN(c2ccc3cc2CN(C)CCCCCC(=O)N(C)CCNc2ncnc4c2/C(=C/N3)C(=O)N4)CC1 [Compound 126] | 0.676 µM | > 10 µM | 3.89 µM | > 10 µM | > 10 µM | > 10 µM | > 10 µM | 6.31 µM | > 10 µM | > 10 µM | – | – | – | – | – | – | – | – | – | –
COc1ccc2cc1OCCCC(=O)N(C1CCCCC1)CCCNc1ncnc3c1C(=CN2)C(=O)N3 (mixture of isomers) [Compound 145] | – | – | – | – | – | – | – | – | – | – | 6.61 | 6.41 | 6.4 | <5 | 5.53 | 6.04 | 6.08 | 5.73 | 5.45 | 6.04
COc1cc2cc(c1OC)OCCCC(=O)N(C)CCCNc1ncnc3c1/C(=C/N2)C(=O)N3 [Compound 112] | 0.105 µM | 0.191 µM | 0.115 µM | 0.0479 µM | > 10 µM | 0.55 µM | 0.562 µM | 5.25 µM | > 10 µM | > 10 µM | – | – | – | – | – | – | – | – | – | –
CN1CCNc2ncnc3c2/C(=C/Nc2cccc(c2)OCCCCC1=O)C(=O)N3 [Compound 42] | 1.7 µM | 1.38 µM | 0.295 µM | 5.89 µM | > 10 µM | 2.19 µM | > 10 µM | > 10 µM | > 10 µM | > 10 µM | – | – | – | – | – | – | – | – | – | –
C[C@@H]1CN(C)CCCNc2ncnc3c2/C(=C/Nc2cccc(c2)OCC(=O)N1)C(=O)N3 [Compound 99] | 0.417 µM | > 10 µM | 2.04 µM | – | > 10 µM | > 10 µM | > 10 µM | > 10 µM | > 10 µM | > 10 µM | – | – | – | – | – | – | – | – | – | –
CN1CCNC(=O)CCCCOc2cccc(c2)N/C=C2\C(=O)Nc3ncnc1c32 [Compound 43] | 2.63 µM | – | 2.51 µM | 4.27 µM | > 10 µM | > 10 µM | > 10 µM | > 10 µM | > 10 µM | > 10 µM | – | – | – | – | – | – | – | – | – | –
CN1CCNc2ncnc3c2/C(=C/Nc2ccc(Cl)c(c2)OCC(=O)N2CCC[C@@H]2C1)C(=O)N3 [Compound 192] | > 10 µM | > 10 µM | 5.01 µM | – | 3.09 µM | 2.19 µM | 2.51 µM | > 10 µM | > 10 µM | > 10 µM | – | – | – | – | – | – | – | – | – | –
CN1CCNc2ncnc3c2/C(=C/Nc2cccc(c2)OCC(=O)N2CCC[C@@H]2C1)C(=O)N3 [Compound 168] | > 10 µM and 6.17 µM | > 10 µM | 7.59 µM and 5.75 µM | – | > 10 µM | > 10 µM | > 10 µM | > 10 µM | > 10 µM | > 10 µM | – | – | – | – | – | – | – | – | – | –

More lines, main results first:

IC50 (PLK4 (h)) | IC50 (AuroraB (h)) | IC50 (GSK3β (h)) | IC50 (CDK1/CyclinB (h)) | IC50 (A2780) | IC50 (HCT-116) | IC50 (H1299) | IC50 (U87MG) | IC50 (PC-3) | SMILES | IC50 (MDA/MB231) | PLK4 pIC50 (PLK4 (h)) | AuroraB pIC50 (AuroraB (h)) | GSK3B pIC50 (GSK3β (h)) | CDK1 pIC50 (CDK1/CyclinB (h)) | pIC50 A2780 (A2780) | pIC50 HCT-116 (HCT-116) | pIC50 H1299 (H1299) | pIC50 MDA/MB231 (MDA/MB231) | pIC50 U87MG (U87MG) | pIC50 PC-3 (PC-3)
8.71 µM | > 10 µM | 6.03 µM | > 10 µM | > 10 µM | > 10 µM | > 10 µM | > 10 µM | > 10 µM | COc1cc2cc(c1OC)CN(C)CC(=O)N(C)CCN(C)CCNc1ncnc3c1/C(=C/N2)C(=O)N3 [Compound 155] | > 10 µM | – | – | – | – | – | – | – | – | – | –
2.63 µM | > 10 µM | 3.63 µM | > 10 µM | > 10 µM | > 10 µM | > 10 µM | > 10 µM | > 10 µM | COc1ccc2cc1OCCCC(=O)NCCN(C)c1ncnc3c1/C(=C/N2)C(=O)N3 [Compound 38] | > 10 µM | – | – | – | – | – | – | – | – | – | –
> 10 µM | > 10 µM | > 10 µM | > 10 µM | > 10 µM | > 10 µM | > 10 µM | > 10 µM | > 10 µM | COc1ccc2cc1CN(C)CCCCCCC(=O)NCCN(C)c1ncnc3c1/C(=C/N2)C(=O)N3 [Compound 50] | > 10 µM | – | – | – | – | – | – | – | – | – | –
4.9 µM | 0.309 µM | > 10 µM | > 10 µM | > 10 µM | 4.9 µM | 8.91 µM | 6.31 µM | 8.13 µM | CN1CCCNc2ncnc3c2/C(=C/Nc2cc(cc(C(F)(F)F)c2)OCCCCC1=O)C(=O)N3 [Compound 130] | > 10 µM | – | – | – | – | – | – | – | – | – | –
2.34 µM | > 10 µM | 0.794 µM | > 10 µM | > 10 µM | > 10 µM | > 10 µM | > 10 µM | > 10 µM | CN1CCCN(C)c2ncnc3c2/C(=C/Nc2cccc(c2)OCCCCCCC1=O)C(=O)N3 [Compound 53] | > 10 µM | – | – | – | – | – | – | – | – | – | –
2.82 µM | > 10 µM | 0.661 µM | > 10 µM | > 10 µM | > 10 µM | > 10 µM | > 10 µM | > 10 µM | CN1CC(=O)N(C)CCCCNc2ncnc3c2/C(=C/Nc2cccc(c2)C1)C(=O)N3 [Compound 154] | > 10 µM | – | – | – | – | – | – | – | – | – | –
2.4 µM | 6.76 µM and 3.24 µM | 0.933 µM and 1.12 µM | – | 5.89 µM | 5.5 µM | > 10 µM | > 10 µM | > 10 µM | CN1CCNC(=O)COc2cccc(c2)N/C=C2\C(=O)Nc3ncnc(c32)NCC1 [Compound 167] | > 10 µM | – | – | – | – | 5.13 | 5.06 | – | – | – | –
– | 1.38 µM | > 10 µM | > 10 µM | > 10 µM | > 10 µM | > 10 µM | > 10 µM | > 10 µM | CN1CCCNc2ncnc3c2/C(=C/Nc2cc(cc(C(F)(F)F)c2)OCCCC1=O)C(=O)N3 [Compound 113] | > 10 µM | – | – | – | – | – | – | – | – | – | –
